#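 Cells were grown in 96-well plates and exposed to each compound for 48 hours at five concentrations; endpoints were interpolated linearly between bracketing concentrations, or set to the highest concentration if not reached. The concentration for 50% growth inhibition is given as GI50.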 The source made the active and inactive calls. Cut-off read from the data, not from the text of the source: active = GI50 up to about 1.1 µM and inactive = higher.
# Experiments:
# Assay in all cases: NCI-60 cell line screen, 48 h
# MCF7 = tested on: MCF7
# RPMI-8226 = tested on: RPMI-8226
# MOLT-4 = tested on: MOLT-4
# NCI-H460 = tested on: NCI-H460
# NCI-H522 = tested on: NCI-H522
# SK-MEL-28 = tested on: SK-MEL-28
# SK-MEL-5 = tested on: SK-MEL-5
# T47D = tested on: T47D
# DU-145 = tested on: DU-145
# MDA-MB-435 = tested on: MDA-MB-435
# BT-549 = tested on: BT-549
# Malme-3M = tested on: Malme-3M
# HCC 2998 = tested on: HCC 2998
# A498 = tested on: A498
# PC-3 = tested on: PC-3
# K562 = tested on: K562
# COLO 205 = tested on: COLO 205
# SR = tested on: SR
# HCT-116 = tested on: HCT-116
# NCI-H23 = tested on: NCI-H23
# HCT-15 = tested on: HCT-15
# TK-10 = tested on: TK-10
# 786-0 = tested on: 786-0
# MDA-N = tested on: MDA-N
# A549 = tested on: A549
# UACC-257 = tested on: UACC-257
# NCI-H226 = tested on: NCI-H226
# CCRF-CEM = tested on: CCRF-CEM
# MDA-MB-231 = tested on: MDA-MB-231
# SF-268 = tested on: SF-268
# IGROV-1 = tested on: IGROV-1
# ACHN = tested on: ACHN
# HOP-62 = tested on: HOP-62
# Hs-578T = tested on: Hs-578T
# SF-295 = tested on: SF-295
# SNB-19 = tested on: SNB-19
# LOX IMVI = tested on: LOX IMVI
# UO-31 = tested on: UO-31
# SF-539 = tested on: SF-539
# SW-620 = tested on: SW-620
# EKVX = tested on: EKVX
# SNB-75 = tested on: SNB-75
# HT-29 = tested on: HT-29
# KM12 = tested on: KM12
# SK-OV-3 = tested on: SK-OV-3
# UACC-62 = tested on: UACC-62
# HL-60 = tested on: HL-60
# OVCAR-8 = tested on: OVCAR-8
# SN12C = tested on: SN12C
# RXF 393 = tested on: RXF 393
# HOP-92 = tested on: HOP-92
# M14 = tested on: M14
# NCI/ADR-RES = tested on: NCI/ADR-RES
# OVCAR-3 = tested on: OVCAR-3
# OVCAR-4 = tested on: OVCAR-4
# OVCAR-5 = tested on: OVCAR-5
# U-251 = tested on: U-251
# CAKI-1 = tested on: CAKI-1
# SK-MEL-2 = tested on: SK-MEL-2
structure (smiles),measurement,setting,value
O=P(O)(O)c1ccc2c(c1)OCCOCCOCCOCCO2,GI50,MCF7,> 100 µM (inactive)
same,GI50,RPMI-8226,> 100 µM (inactive)
same,GI50,MOLT-4,> 100 µM (inactive)
same,GI50,NCI-H460,> 100 µM (inactive)
same,GI50,NCI-H522,> 100 µM (inactive)
same,GI50,SK-MEL-28,> 100 µM (inactive)
same,GI50,SK-MEL-5,> 100 µM (inactive)
same,GI50,T47D,> 100 µM (inactive)
same,GI50,DU-145,> 100 µM (inactive)
same,GI50,MDA-MB-435,> 100 µM (inactive)
same,GI50,BT-549,> 100 µM (inactive)
same,GI50,Malme-3M,> 100 µM (inactive)
same,GI50,HCC 2998,> 100 µM (inactive)
same,GI50,A498,> 100 µM (inactive)
same,GI50,PC-3,> 100 µM (inactive)
same,GI50,K562,> 100 µM (inactive)
same,GI50,COLO 205,> 100 µM (inactive)
same,GI50,SR,> 100 µM (inactive)
same,GI50,HCT-116,> 100 µM (inactive)
same,GI50,NCI-H23,> 100 µM (inactive)
same,GI50,HCT-15,> 100 µM
same,GI50,TK-10,> 100 µM (inactive)
same,GI50,786-0,> 100 µM (inactive)
same,GI50,MDA-N,> 100 µM (inactive)
same,GI50,A549,> 100 µM (inactive)
same,GI50,UACC-257,> 100 µM (inactive)
same,GI50,NCI-H226,> 100 µM (inactive)
same,GI50,CCRF-CEM,> 100 µM (inactive)
same,GI50,MDA-MB-231,> 100 µM (inactive)
same,GI50,SF-268,> 100 µM (inactive)
same,GI50,IGROV-1,> 100 µM (inactive)
same,GI50,ACHN,> 100 µM (inactive)
same,GI50,HOP-62,> 100 µM (inactive)
same,GI50,Hs-578T,> 100 µM (inactive)
same,GI50,SF-295,> 100 µM (inactive)
same,GI50,SNB-19,> 100 µM (inactive)
same,GI50,LOX IMVI,> 100 µM (inactive)
same,GI50,UO-31,> 100 µM (inactive)
same,GI50,SF-539,> 100 µM (inactive)
same,GI50,SW-620,> 100 µM (inactive)
same,GI50,EKVX,> 100 µM (inactive)
same,GI50,SNB-75,> 100 µM (inactive)
same,GI50,HT-29,> 100 µM (inactive)
same,GI50,KM12,> 100 µM (inactive)
same,GI50,SK-OV-3,> 100 µM (inactive)
same,GI50,UACC-62,> 100 µM (inactive)
same,GI50,HL-60,> 100 µM (inactive)
same,GI50,OVCAR-8,> 100 µM (inactive)
same,GI50,SN12C,> 100 µM (inactive)
CC[C@H](C)[C@H]1NC(=O)[C@@H](NC(=O)[C@@H](CC(C)C)N(C)C(=O)C2CCCN2C(=O)[C@H](C)O)[C@@H](C)OC(=O)[C@H](Cc2ccc(OC)cc2)N(C)C(=O)[C@@H]2CCCN2C(=O)[C@H](CCCCNC(=O)OCc2ccccc2)NC(=O)[C@H](C)C(=O)[C@H](C(C)C)OC(=O)C[C@@H]1O (stereo partly specified),GI50,MCF7,2.77 µM (inactive)
same,GI50,RPMI-8226,4.17 µM (inactive)
same,GI50,RXF 393,> 25 µM (inactive)
same,GI50,MOLT-4,4.79 µM (inactive)
same,GI50,NCI-H460,6.4 µM (inactive)
same,GI50,NCI-H522,3.37 µM (inactive)
same,GI50,SK-MEL-28,12.2 µM (inactive)
same,GI50,SK-MEL-5,4.41 µM (inactive)
same,GI50,T47D,7.67 µM (inactive)
same,GI50,DU-145,9.84 µM (inactive)
same,GI50,MDA-MB-435,5.86 µM (inactive)
same,GI50,HOP-92,3.49 µM (inactive)
same,GI50,BT-549,7.93 µM (inactive)
same,GI50,M14,4.13 µM (inactive)
same,GI50,Malme-3M,4.89 µM (inactive)
same,GI50,HCC 2998,2.73 µM (inactive)
same,GI50,A498,> 25 µM (inactive)
same,GI50,PC-3,3.93 µM (inactive)
same,GI50,K562,7.29 µM (inactive)
same,GI50,COLO 205,3.91 µM (inactive)
same,GI50,SR,12.2 µM (inactive)
same,GI50,HCT-116,3.28 µM (inactive)
same,GI50,NCI-H23,10.7 µM (inactive)
same,GI50,HCT-15,> 25 µM
same,GI50,TK-10,6.97 µM (inactive)
same,GI50,786-0,5.56 µM (inactive)
same,GI50,MDA-N,5.68 µM (inactive)
same,GI50,A549,3.9 µM (inactive)
same,GI50,UACC-257,2.49 µM (inactive)
same,GI50,NCI/ADR-RES,> 25 µM (inactive)
same,GI50,NCI-H226,12.7 µM (inactive)
same,GI50,OVCAR-3,4.01 µM (inactive)
same,GI50,CCRF-CEM,6.46 µM (inactive)
same,GI50,SF-268,3.91 µM (inactive)
same,GI50,IGROV-1,7.74 µM (inactive)
same,GI50,ACHN,20.1 µM (inactive)
same,GI50,HOP-62,6.65 µM (inactive)
same,GI50,Hs-578T,1.41 µM (inactive)
same,GI50,OVCAR-4,5.47 µM (inactive)
same,GI50,SF-295,8.63 µM (inactive)
same,GI50,SNB-19,2.66 µM (inactive)
same,GI50,LOX IMVI,7.4 µM (inactive)
same,GI50,UO-31,23.4 µM (inactive)
same,GI50,OVCAR-5,7.28 µM (inactive)
same,GI50,SF-539,12.8 µM (inactive)
same,GI50,SW-620,7.74 µM (inactive)
same,GI50,EKVX,5.38 µM (inactive)
same,GI50,HT-29,3.37 µM (inactive)
same,GI50,KM12,4.73 µM (inactive)
same,GI50,SK-OV-3,7.69 µM (inactive)
same,GI50,U-251,3.55 µM (inactive)
same,GI50,UACC-62,8.2 µM (inactive)
same,GI50,HL-60,> 25 µM (inactive)
same,GI50,OVCAR-8,19.7 µM (inactive)
same,GI50,CAKI-1,16.8 µM (inactive)
same,GI50,SK-MEL-2,1.96 µM (inactive)
same,GI50,SN12C,5.64 µM (inactive)

# — ChEMBL document CHEMBL1201862, “PubChem BioAssay data set” (2004)
